Source: US20250215039A1, “NUCLEOSIDES FOR TREATING CANCER” (PRIMEFOUR THERAPEUTICS, INC., priority 2022, published 2025)
Where two headings read alike, the source gives them in different places.

Tested on: cancer cell lines
Assay: Cancer cell proliferation activity (CellTiterGlo, 72 h)
Format: cell-based
Settings: 72 h, 72 h, read-out: IC50
Procedure: Dose response relationships on cell proliferation was assessed for representative Compounds of the Disclosure on cancer cell lines. Briefly, compound treatment of cells started one day after seeding with a final DMSO concentration of 0.1%, and was performed by nanodrop-dispensing using a Tecan Dispenser. 0.1% DMSO (solvent) and Staurosporine (10 μM) served as high control (100% viability) and low control (0% viability), respectively.
Cells were cultured in the appropriate media. For the assays, cells were seeded in white cell culture-treated flat and clear bottom multiwell plates and incubated at 37° C. overnight before compound was added. After incubation for 72 h at 37° C. at 5% or 10% CO2 dependent on the medium, cell plates were equilibrated to room temperature for one hour, CellTiterGlo reagent (Promega) was added and luminescence was measured approximately an hour later using a luminometer.
Raw data were converted into percent cell viability relative to the high and low control, which were set to 100% and 0%, respectively.
The IC50 values are summarized in Tables 9A-1, Table 10A, and Table 10B.

An IC50 (5637 cell line (bladder)) of 880 nM, an IC50 (CLS439 cell line (bladder)) greater than 50000 nM and an IC50 (HS729 cell line (muscle)) of 1240 nM were found for CC[C@]1(CO)O[C@@H](n2cnc3c(N)nc(F)nc32)C[C@@H]1O [Cpd. No. 1, (2R,3S,5R)-5-(6-amino-2-fluoro-9H-purin-9-yl)-2-ethyl-2-(hydroxymethyl)tetrahydrofuran-3-ol] in this work. It also gave an IC50 (JAR cell line (placenta)) of 440 nM, an IC50 (U20S cell line, bone) of 840 nM and an IC50 (Homo sapiens, 22Rv1, 72 h, 22RV1 cell line (prostate)) of 1860 nM. The IC50 (Homo sapiens, 786-0, 72 h, 786O cell line (kidney)) was 620 nM, the IC50 (Homo sapiens, A204, 72 h, A204 cell line (muscle)) was 550 nM and the IC50 (Homo sapiens, A549, 72 h, A549 cell line, lung) was greater than 50000 nM. For the same molecule, the IC50 (Homo sapiens, A673, 72 h, A673 cell line (bone)) was 2560 nM, the IC50 (Homo sapiens, A2780, 72 h, A2780 cell line (ovary)) was 910 nM and the IC50 (Homo sapiens, A-375, 72 h, A375 cell line (skin)) was 530 nM. It also gave an IC50 (Homo sapiens, A-431, 72 h, A431 cell line (skin)) of 530 nM, an IC50 (Homo sapiens, ACHN, ACHN cell line (kidney)) greater than 50000 nM and an IC50 (Homo sapiens, ASPC1, 72 h, ASPC1 cell line (pancreas)) of 470 nM. The IC50 (Homo sapiens, BT-20, 72 h, BT20 cell line (breast)) was 550 nM, the IC50 (Homo sapiens, C-33-A, C33A cell line, endometrial) was 950 nM and the IC50 (Homo sapiens, CAKI-1, 72 h, CAKI1 cell line (kidney)) was 60 nM. It also gave an IC50 (Homo sapiens, COLO 205, 72 h, COLO205 cell line (colon)) of 1060 nM, an IC50 (Homo sapiens, COLO-678, 72 h, COLO678 cell line (colon)) greater than 50000 nM and an IC50 (Homo sapiens, Ca-Ski, CASKI cell line, endometrial) of 310 nM. For the same molecule, the IC50 (Homo sapiens, Caco-2, 72 h, CACO2 cell line (colon)) was 1040 nM, the IC50 (Homo sapiens, Calu-6, 72 h, CALU6 cell line (lung)) was 650 nM and the IC50 (Homo sapiens, DLD-1, 72 h, DLD1 cell line (colon)) was 2070 nM. The IC50 (Homo sapiens, DU-145, 72 h, DU145 cell line (prostate)) was 190 nM, the IC50 (Homo sapiens, EFO-21, 72 h, EFO21 cell line (ovary)) was 520 nM and the IC50 (Homo sapiens, EJ-28, 72 h, EJ28 cell line (bladder)) was 490 nM. For the same molecule, the IC50 (Homo sapiens, Granta-519, 72 h, GRANTA-519 cell line (hematological)) was greater than 50000 nM, the IC50 (Homo sapiens, HCT-15, 72 h, HCT15 cell line (colon)) was 2780 nM and the IC50 (Homo sapiens, HCT-116, 72 h, HCT116 cell line (colon)) was 820 nM. The IC50 (Homo sapiens, HEK293, 72 h, HEK293 cell line (kidney)) was 710 nM, the IC50 (Homo sapiens, HL-60, 72 h, HL-60 cell line (hematological)) was 830 nM and the IC50 (Homo sapiens, HT-29, 72 h, HT29 cell line (colon)) was 530 nM. It also gave an IC50 (Homo sapiens, HT-1080, 72 h, HT1080 cell line (connective tissue)) greater than 50000 nM, an IC50 (Homo sapiens, HeLa, HELA cell line, endometrial) of 1070 nM and an IC50 (Homo sapiens, HepG2, 72 h, HEPG2 cell line (liver)) of 670 nM. The IC50 (Homo sapiens, Hs-578T, HS578T cell line, breast) was 850 nM, the IC50 (Homo sapiens, IGROV-1, 72 h, IGROV1 cell line (ovary)) was 380 nM and the IC50 (Homo sapiens, IMR-90, 72 h, IMR90 cell line, lung) was 640 nM. For the same molecule, the IC50 (Homo sapiens, J82, 72 h, J82 cell line (bladder)) was 540 nM, the IC50 (Homo sapiens, JEG-3, 72 h, JEG3 cell line (placenta)) was 670 nM and the IC50 (Homo sapiens, JIMT-1, 72 h, JIMT1 cell line (breast)) was 160 nM. It also gave an IC50 (Homo sapiens, K562, 72 h, K-562 cell line (hematological)) greater than 50000 nM, an IC50 (Homo sapiens, Kasumi 1, 72 h, KASUMI-1 cell line (hematological)) of 150 nM and an IC50 (Homo sapiens, L-363, 72 h, L-363 cell line (hematological)) of 570 nM. For the same molecule, the IC50 (Homo sapiens, LoVo, LOVO cell line (colon)) was 290 nM, the IC50 (Homo sapiens, MCF7, 72 h, MCF7 cell line (breast)) was greater than 50000 nM and the IC50 (Homo sapiens, MDA-MB-231, 72 h, MDAMB231 cell line (breast)) was greater than 50000 nM. It also gave an IC50 (Homo sapiens, MDA-MB-435, 72 h, MDAMB435 cell line (skin)) of 1720 nM, an IC50 (Homo sapiens, MDA-MB-436, 72 h, MDAMB436 cell line (breast)) of 370 nM and an IC50 (Homo sapiens, MDA-MB-468, 72 h, MDAMB468 cell line (breast)) of 690 nM. For the same molecule, the IC50 (Homo sapiens, MG-63, 72 h, MG63 cell line (bone)) was greater than 50000 nM, the IC50 (Homo sapiens, MHH-ES-1, 72 h, MHHES1 cell line (bone)) was 600 nM and the IC50 (Homo sapiens, MIA PaCa-2, 72 h, MIAPACA2 cell line (pancreas)) was greater than 50000 nM. It also gave an IC50 (Homo sapiens, MINO, MINO cell line (hematological)) of 250 nM, an IC50 (Homo sapiens, MV4-11, 72 h, MV4-11 cell line (hematological)) of 170 nM and an IC50 (Homo sapiens, NCI-H23, 72 h, NCI-H23 cell line (lung)) of 830 nM. For the same molecule, the IC50 (Homo sapiens, NCI-H82, 72 h, NCIH82 cell line (lung)) was 610 nM, the IC50 (Homo sapiens, NCI-H292, 72 h, NCIH292 cell line (lung)) was greater than 50000 nM and the IC50 (Homo sapiens, NCI-H460, 72 h, NCIH460 cell line (lung)) was 970 nM. It also gave an IC50 (Homo sapiens, OVCAR-3, 72 h, OVCAR3 cell line (ovary)) of 260 nM, an IC50 (Homo sapiens, OVCAR-4, 72 h, OVCAR4 cell line (ovary)) of 960 nM and an IC50 (Homo sapiens, PANC-1, 72 h, PANC1 cell line (pancreas)) greater than 50000 nM. It also gave an IC50 (Homo sapiens, PC-3, 72 h, PC3 cell line (prostate)) of 870 nM, an IC50 (Homo sapiens, PLC-PRF-5, 72 h, PLCPRF5 cell line (liver)) of 3200 nM and an IC50 (Homo sapiens, Panc1005, 72 h, PANC1005 cell line (pancreas)) of 440 nM. It also gave an IC50 (Homo sapiens, RD, RD cell line (muscle)) of 1460 nM, an IC50 (Homo sapiens, Ramos, RAMOS cell line (hematological)) of 940 nM and an IC50 (Homo sapiens, SAOS-2, 72 h, SAOS2 cell line (bone)) of 640 nM. The IC50 (Homo sapiens, SF-268, 72 h, SF268 cell line (brain)) was greater than 50000 nM, the IC50 (Homo sapiens, SF-295, 72 h, SF295 cell line (brain)) was 1420 nM and the IC50 (Homo sapiens, SK-BR-3, 72 h, SKBR3 cell line (breast)) was 150 nM. It also gave an IC50 (Homo sapiens, SK-HEP1, 72 h, SKHEP1 cell line (liver)) greater than 50000 nM, an IC50 (Homo sapiens, SK-LMS-1, 72 h, SKLMS1 cell line (uterus)) of 470 nM and an IC50 (Homo sapiens, SK-MEL-5, 72 h, SKMEL5 cell line, skin) greater than 50000 nM. It also gave an IC50 (Homo sapiens, SK-MEL-28, 72 h, SKMEL28 cell line (skin)) of 1260 nM, an IC50 (Homo sapiens, SK-N-AS, SKNAS cell line (brain)) of 1140 nM and an IC50 (Homo sapiens, SK-N-SH, SKNSH cell line (brain)) of 750 nM. It also gave an IC50 (Homo sapiens, SK-OV-3, 72 h, SKOV3 cell line (ovary)) of 760 nM, an IC50 (Homo sapiens, SNB-75, 72 h, SNB75 cell line (brain)) of 2370 nM and an IC50 (Homo sapiens, SU-DHL10, 72 h, SU-DHL-10 cell line (hematological)) of 120 nM. For the same molecule, the IC50 (Homo sapiens, SU-DHL-6, 72 h, SU-DHL-6 cell line (hematological)) was 430 nM, the IC50 (Homo sapiens, SW-620, 72 h, SW620 cell line (colon)) was 730 nM and the IC50 (Homo sapiens, T-24, 72 h, T24 cell line (bladder)) was 1460 nM. It also gave an IC50 (Homo sapiens, TE-671, 72 h, TE671 cell line (muscle)) of 4780 nM, an IC50 (Homo sapiens, THP-1, 72 h, THP-1 cell line (hematological)) greater than 50000 nM and an IC50 (Homo sapiens, U-87 MG, U87MG cell line (brain)) greater than 50000 nM. The IC50 (Homo sapiens, UMUC3, 72 h, UMUC3 cell line (bladder)) was greater than 50000 nM, the IC50 (Homo sapiens, UO-31, 72 h, UO31 cell line (kidney)) was 630 nM and the IC50 (Homo sapiens, WSU-NHL, WSU-NHL cell line (hematological)) was 720 nM. It also gave an IC50 (MT-3, 72 h, MT3 cell line (breast)) of 510 nM, an IC50 (NCI-H358M, NCIH358M cell line (lung)) of 560 nM and an IC50 (PBMC, PBMC (hematological)) of 310 nM. The IC50 (RD-ES, RDES cell line (bone)) was 410 nM.
